Structures are written as SMILES.

The experiment relates to Vibrio harveyi MM32, AI-2 induced luminescence, 5 h. Kind of experiment: AI-2 driven bioluminescence decrease, LuxPQ pathway – strain MM32, luminescence, dry powder, mechanism study for V. harveyi quorum sensing inhibitors, dose response (AID 493118).
By AC50 is commonly meant the concentration at which the activity in the assay is half-maximal. In the case of `C=Cn1c(C(=O)O)ccc1-c1ccc(CC)cc1`, the AC50 is 2140 nM.

In the case of `COc1cc(NC(=O)CN2C(=O)NC(c3ccccc3)(c3ccccc3)C2=O)cc(OC)c1`, the AC50 was 615 nM.

`Cc1cccc(NS(=O)(=O)c2ccc(Oc3ccccc3)cc2)n1`: the AC50 is 898 nM.

Turning to `CCc1ccc(S(=O)(=O)Nc2ccc(Br)cn2)cc1`, the AC50 was 1400 nM.

Regarding `Cn1cnc(S(=O)(=O)Nc2ccc(OC(F)(F)F)cc2)c1`, the AC50 was 1950 nM.

`O=C1C=C/C(=C/Br)O1`: the AC50 is 4330 nM.

Values taken from PubChem BioAssay AID493118 (Broad Institute, 2011).
